Key:
HCT-116 [1] = assay: Induction of cell cycle arrest in human HCT-116 cells assessed as accumulation of cells at G1 phase at 3 uM incubated for 24 hrs by flow cytometry analysis (reference value: 68.74%); type: functional
HCT-116 [2] = assay: Inhibition of cell migration in human HCT-116 cells at 2 uM measured for 24 hrs by scratch wound healing assay; type: functional
[3] = Potency index, ratio of test compound IC50 to 5-fluorouracil IC50 for cytotoxicity against HEK293 cells assessed as inhibition of cell growth incubated 1.5 hrs by MTT assay; type: toxicity, cell-based; details: human, read-out: Ratio IC50
HCT-116 [4] = assay: Induction of apoptosis in human HCT-116 cells assessed as late apoptotic cells at 1.5 uM incubated for 24 hrs by annexin V-FITC/7-AAD staining based flow cytometry analysis (reference value: 1.53%); type: functional
HCT-116 [5] = assay: Inhibition of cell migration in human HCT-116 cells at 1 uM measured for 24 hrs by scratch wound healing assay; type: functional
HCT-116 [6] = assay: Induction of cell cycle arrest in human HCT-116 cells assessed as accumulation of cells at S phase at 1.5 uM incubated for 24 hrs by flow cytometry analysis (reference value: 3.61%); type: functional
hERG (KCNH2) = hERG (KCNH2) (Homo sapiens, UniProt Q12809); assay: Inhibition of hERG expressed in CHO cells at 40 uM by automated patch clamp analysis relative to control; type: toxicity, cell-based; details: CHO cells that express hERG
hERG (KCNH2), sequence (Q12809 whole entry): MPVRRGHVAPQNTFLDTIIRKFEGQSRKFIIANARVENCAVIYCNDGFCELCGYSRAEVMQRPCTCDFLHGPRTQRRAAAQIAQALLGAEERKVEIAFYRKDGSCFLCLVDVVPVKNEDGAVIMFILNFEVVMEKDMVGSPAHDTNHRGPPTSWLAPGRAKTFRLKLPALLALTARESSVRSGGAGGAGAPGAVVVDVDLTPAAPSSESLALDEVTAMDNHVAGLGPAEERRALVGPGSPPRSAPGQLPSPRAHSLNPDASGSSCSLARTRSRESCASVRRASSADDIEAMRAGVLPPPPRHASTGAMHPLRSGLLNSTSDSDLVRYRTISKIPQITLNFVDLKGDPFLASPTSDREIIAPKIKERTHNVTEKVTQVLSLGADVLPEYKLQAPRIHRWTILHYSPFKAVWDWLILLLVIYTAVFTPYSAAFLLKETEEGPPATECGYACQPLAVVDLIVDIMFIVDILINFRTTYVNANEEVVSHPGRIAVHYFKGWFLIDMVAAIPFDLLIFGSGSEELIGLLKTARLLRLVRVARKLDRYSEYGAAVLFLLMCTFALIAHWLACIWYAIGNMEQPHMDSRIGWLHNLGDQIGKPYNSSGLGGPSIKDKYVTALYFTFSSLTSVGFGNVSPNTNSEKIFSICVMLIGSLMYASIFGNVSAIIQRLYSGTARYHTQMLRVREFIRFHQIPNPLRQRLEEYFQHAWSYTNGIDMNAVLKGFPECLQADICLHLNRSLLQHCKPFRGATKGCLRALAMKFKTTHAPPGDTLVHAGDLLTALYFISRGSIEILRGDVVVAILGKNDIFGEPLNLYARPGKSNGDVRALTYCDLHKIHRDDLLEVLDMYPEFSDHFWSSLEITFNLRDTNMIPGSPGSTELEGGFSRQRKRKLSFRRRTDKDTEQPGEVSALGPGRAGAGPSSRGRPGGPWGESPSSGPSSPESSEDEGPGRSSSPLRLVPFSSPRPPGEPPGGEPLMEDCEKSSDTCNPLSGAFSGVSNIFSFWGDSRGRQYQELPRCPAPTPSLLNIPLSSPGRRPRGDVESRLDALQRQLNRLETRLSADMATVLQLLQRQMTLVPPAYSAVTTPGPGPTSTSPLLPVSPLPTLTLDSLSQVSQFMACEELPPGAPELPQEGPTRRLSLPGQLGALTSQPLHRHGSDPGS

HCT-116 [7] = assay: Inhibition of colony formation in human HCT-116 cells at 1 uM incubated for 48 hrs by crystal violet staining based analysis; type: functional; details: HCT-116, 48 h, values are per cent of control
HCT-116 [8] = assay: Induction of apoptosis in human HCT-116 cells assessed as viable cells at 1.5 uM incubated for 24 hrs by annexin V-FITC/7-AAD staining based flow cytometry analysis (reference value: 90.19%); type: functional; details: read-out: Activity
HCT-116 [9] = assay: Inhibition of cell migration in human HCT-116 cells at 0.5 uM measured for 24 hrs by scratch wound healing assay; type: functional
Tubulin (Bos taurus) = Tubulin (Bos taurus) (UniProt Q6B856+Q862L2+Q862F3); assay: Inhibition of bovine brain tubulin polymerization at 3 uM measured at 2 to 20 mins by spectrophotometer analysis relative to control; details: time 2-20 min
HCT-116 [10] = assay: Induction of cell cycle arrest in human HCT-116 cells assessed as accumulation of cells at S phase at 3 uM incubated for 24 hrs by flow cytometry analysis (reference value: 3.61%); type: functional
HCT-116 [11] = assay: Induction of apoptosis in human HCT-116 cells assessed as early apoptotic cells at 1.5 uM incubated for 24 hrs by annexin V-FITC/7-AAD staining based flow cytometry analysis (reference value: 5.82%); type: functional
HCT-116 [12] = assay: Induction of apoptosis in human HCT-116 cells assessed as late apoptotic cells at 6 uM incubated for 24 hrs by annexin V-FITC/7-AAD staining based flow cytometry analysis (reference value: 1.53%); type: functional
HCT-116 [13] = assay: Induction of cell cycle arrest in human HCT-116 cells assessed as accumulation of cells at G2/M phase at 3 uM incubated for 24 hrs by flow cytometry analysis (reference value: 18.25%); type: functional

- inhibition (Tubulin (Bos taurus)): 30%
Compound: CCOc1ccc([C@H]2CC(=O)c3cc(OC)c(OC)c(OC)c32)cc1F
- Activity (HCT-116 [1]): 62.85%
- inhibition at 2 µM (HCT-116 [2]): 55%
- selectivity ratio at 1.5 h [3]: 1.39
- Activity (HCT-116 [4]): 2.85%
- inhibition at 1 µM (HCT-116 [5]): 43%
- Activity (HCT-116 [6]): 7.57%
- inhibition at 40 µM (hERG (KCNH2)): 42%
- growth, % of control at 1 µM (HCT-116 [7]): 1.3%
- viability at 1.5 µM (HCT-116 [8]): 86.7%
- inhibition at 0.5 µM (HCT-116 [9]): 21%
- Activity (HCT-116 [10]): 6.6%
- Activity (HCT-116 [11]): 8.12%
- Activity (HCT-116 [12]): 13.77%
- Activity (HCT-116 [13]): 28.73%
